In patent US20220023221A1, “Oral Unit Dosage Form Of Ivermectin” (CHEMO RESEARCH, S.L., priority 2020, published 2022):

Tests used:
[1] = tested on: SARS-CoV-2; assay: viral load by real-time (RT) PCR in the nasal mucosa of SARS-CoV-2 positive patients; assay type: in vivo
Description: The term “viral load” is well known to a person skilled in the art. The term “viral load” is a measure of the severity of an active viral infection, and can be determined by methods known to the person skilled in the art. As an Example, the viral load can be calculated by estimating the live amount of virus in an involved body fluid such as a number of RNA copies per milliliter of blood plasma. For example, the viral load can be determined by a real-time (RT) PCR test.
Ivermectin tablets as produced in Example 1 were administered for seven days in a daily dose of 600 μg/kg once daily to 9 patients (IVM) which have been tested to be positive for SARS-CoV-2, whereas 7 patients (control) which have been tested to be positive for SARS-CoV-2, received placebo tablets during said 7 days period.
The viral load was measured by a real-time (RT) PCR test on treatment days 1, 3, 5 and 7 in the nasal mucosa.

[2] = oral administration of the ivermectin tablets, 600 μg/kg once daily; patient with 100% viral load reduction
[3] = tested on: SARS-CoV-2 virus; conditions: cited from earlier work
[4] = oral administration of the approved dose of 200 μg/kg; read-out: maximum plasma concentration (Cmax); cited from earlier work
[5] = increasing doses from 150 μg/kg/day to 1600 μg/kg/day, onchoceriasis patients; cited from earlier work

Substance: ivermectin
- reduction in viral load ([1]; Day 7, 600 μg/kg once daily for seven days, 9 patients, nasal mucosa): more than 50%
- reduction of the viral load compared with control ([1]; each timepoint (days 1, 3, 5, 7), 600 μg/kg once daily, nasal mucosa): greater reduction of the viral load at each timepoint
- Decay rate of viral load, single patient ([1]; the patient with 183 ng/ml IVM concentration): 0.54 day⁻¹
- viral load reduction in the nasal mucosa, single patient ([1]; the patient with 183 ng/ml ivermectin concentration in the blood): 100%
- ivermectin (IVM) concentration in the blood, single patient [2]: 183 ng/mL
- IC50 ([3]; SARS-CoV-2 replication in vitro, read-out: concentration resulting in 50% inhibition (IC50)): 2000 nM
- inhibition of replication of SARS-CoV-2 virus in vitro ([3]; ivermectin at 5 μM): inhibit the replication of SARS-CoV-2 virus in vitro
- Cmax [4]: 50 nM
- tolerability [5]: well tolerated
